Measured values published in patent US8017313B2, “Human G protein-coupled receptor and modulators thereof for the treatment of cardiovascular disorders” (Arena Pharmaceuticals, Inc., priority 2003, dated 2011).

Each compound was assayed on RUP40 transcript in neonatal rat ventricular myocytes (NRVMs) (assay: RT-PCR of RUP40 transcript in neonatal rat ventricular myocytes). Details: 24 hours following addition to media, FIG. 4.
Assay type: cell-based
Protocol: Neonatal rat ventricular myocytes (NRVMs) were isolated and cultured as described previously [Adams, J W et al., J Biol Chem (1996) 271:1179-86]. Briefly, hearts were obtained from 1- to 2-day old Sprague-Dawley rat pups and digested with collagenase, and myocytes were purified by passage through a Percoll gradient. Cells were plated onto tissue culture dishes precoated with 1% gelatin and maintained overnight in 4:1 DMEM/medium-199 supplemented with 10% horse serum, 5% fetal calf serum, and antibiotics (100 units/ml penicillin and 100 μg/ml streptomycin. After 18 hours in plating medium, myocytes were washed with maintenance medium (DMEM/medium 199 plus antibiotics) to remove dead cells and debris and refreshed with maintenance medium for the duration of the experiment.
Total RNA isolated from NRVMs and fibroblasts as described above was used as a template for generation of reverse transcribed DNA (RT-DNA) using the RT for PCR kit (Becton Dickinson, Franldin, N.J.) according to manufacturer's instructions. RUP40 expression was detected in RT-DNA samples by PCR. PCR conditions were: 96° C. or 2 min; 30 cycles of 96° C. for 30 sec, 55° C. for 30 sec, 72° C. for 2 min; 72° C. for 10 min.
The amplified rat RUP40 DNA product is of size 403 base pairs. G3PDH amplifiers (Becton Dickinson, Franldin, N.J.) were added to each PCR reaction as an internal control.

| Compound | RUP40 transcript levels in the myocytes |
| --- | --- |
| CNC[C@H](O)c1cccc(O)c1 [PE, phenylephrine] | remain elevated |
| CCCCCCCCCCCCCC(=O)O[C@@H]1[C@@H](C)[C@@]2(O)[C@@H](C=C(CO)C[C@]3(O)C(=O)C(C)=C[C@@H]23)[C@@H]2C(C)(C)[C@]12OC(C)=O [PMA, phorbol 12-myristate 13-acetate] | drop dramatically |
| prostaglandin F2 alpha [PG] | remain elevated |
